In patent US20260070913A1, “7-AMINO-3,4-DIHYDROPYRIMIDOPYRIMIDIN-2-ONE DERIVATIVE HAVING INHIBITORY ACTIVITY FOR PROTEIN KINASES AND THERAPEUTIC PHARMACEUTICAL COMPOSITION COMPRISING SAME” (KOREA INSTITUTE OF SCIENCE AND TECHNOLOGY, priority 2020, published 2026) one finds GI50 and IC50 data, which are given here for two compounds.

One test deals with Ba/F3 (N-Ras G12D). Briefly: Proliferation inhibitory activity, mt-NRAS (G12D) Ba/F3 cell line. The settings on record: Mus musculus, BaF3. The test is classed as cell-based. Here is the method:
(§1) The inhibitory activities of the compounds of the present disclosure against the proliferation of the mt-NRAS (G12D) Ba/F3 and OCI-AML3 (mt-NRAS) cell lines were measured, and the […] values thereof were calculated.

For a further test, the target named is ACK1 (Homo sapiens, UniProt Q07912). Briefly: Inhibitory activity against ACK1 kinase. The test is classed as biochemical. As for the experimental part:
(§2) The inhibitory activities of the compounds of the present disclosure against two kinases, GCK and ACK1, were measured, and the IC50 values thereof were calculated.

Another test has as its system OCI-AML3 (N-Ras Q61L). Briefly: Proliferation inhibitory activity, OCI-AML3 cell line. Type of test: cell-based. The note with it: Homo sapiens, OCI-AML-3. As for the experimental part:
as §1
Referring to the results in Table 2, it can be seen that the compound of the present disclosure has inhibitory activity against the proliferation of the human acute myeloid leukemia cell line (OCI-AML3) having the NRAS mutant gene, and the effect thereof is remarkable. Therefore, it can be seen that the compound of the present disclosure is particularly effective as a therapeutic agent for acute myeloid leukemia (AML).

The target in a further test is T1, GCK (Homo sapiens, UniProt Q12851).
T1 sequence (Q12851 1-820): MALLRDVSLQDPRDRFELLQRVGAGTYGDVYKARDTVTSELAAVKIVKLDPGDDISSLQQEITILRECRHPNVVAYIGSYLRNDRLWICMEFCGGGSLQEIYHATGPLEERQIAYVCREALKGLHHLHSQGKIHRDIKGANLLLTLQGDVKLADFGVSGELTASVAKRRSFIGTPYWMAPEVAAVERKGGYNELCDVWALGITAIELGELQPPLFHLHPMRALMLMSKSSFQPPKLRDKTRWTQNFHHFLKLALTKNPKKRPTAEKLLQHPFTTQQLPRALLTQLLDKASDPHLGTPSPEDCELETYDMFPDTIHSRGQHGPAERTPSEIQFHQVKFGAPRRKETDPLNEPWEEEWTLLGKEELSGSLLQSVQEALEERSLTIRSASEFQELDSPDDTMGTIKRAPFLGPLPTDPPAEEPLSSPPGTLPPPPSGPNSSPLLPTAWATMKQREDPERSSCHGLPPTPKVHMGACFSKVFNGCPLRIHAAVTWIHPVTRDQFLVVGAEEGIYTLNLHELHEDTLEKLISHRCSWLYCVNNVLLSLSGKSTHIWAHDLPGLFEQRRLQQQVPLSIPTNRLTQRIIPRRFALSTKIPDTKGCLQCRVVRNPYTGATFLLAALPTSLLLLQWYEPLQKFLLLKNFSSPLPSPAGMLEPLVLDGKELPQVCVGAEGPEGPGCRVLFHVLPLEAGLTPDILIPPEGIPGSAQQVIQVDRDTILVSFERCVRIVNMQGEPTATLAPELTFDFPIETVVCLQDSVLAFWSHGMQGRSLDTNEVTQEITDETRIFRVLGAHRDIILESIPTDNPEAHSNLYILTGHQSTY
The experiment in a line: Inhibitory activity against GCK kinase. Type of test: biochemical. As for the experimental part: as §2

Sequence of ACK1 (Q07912 whole entry): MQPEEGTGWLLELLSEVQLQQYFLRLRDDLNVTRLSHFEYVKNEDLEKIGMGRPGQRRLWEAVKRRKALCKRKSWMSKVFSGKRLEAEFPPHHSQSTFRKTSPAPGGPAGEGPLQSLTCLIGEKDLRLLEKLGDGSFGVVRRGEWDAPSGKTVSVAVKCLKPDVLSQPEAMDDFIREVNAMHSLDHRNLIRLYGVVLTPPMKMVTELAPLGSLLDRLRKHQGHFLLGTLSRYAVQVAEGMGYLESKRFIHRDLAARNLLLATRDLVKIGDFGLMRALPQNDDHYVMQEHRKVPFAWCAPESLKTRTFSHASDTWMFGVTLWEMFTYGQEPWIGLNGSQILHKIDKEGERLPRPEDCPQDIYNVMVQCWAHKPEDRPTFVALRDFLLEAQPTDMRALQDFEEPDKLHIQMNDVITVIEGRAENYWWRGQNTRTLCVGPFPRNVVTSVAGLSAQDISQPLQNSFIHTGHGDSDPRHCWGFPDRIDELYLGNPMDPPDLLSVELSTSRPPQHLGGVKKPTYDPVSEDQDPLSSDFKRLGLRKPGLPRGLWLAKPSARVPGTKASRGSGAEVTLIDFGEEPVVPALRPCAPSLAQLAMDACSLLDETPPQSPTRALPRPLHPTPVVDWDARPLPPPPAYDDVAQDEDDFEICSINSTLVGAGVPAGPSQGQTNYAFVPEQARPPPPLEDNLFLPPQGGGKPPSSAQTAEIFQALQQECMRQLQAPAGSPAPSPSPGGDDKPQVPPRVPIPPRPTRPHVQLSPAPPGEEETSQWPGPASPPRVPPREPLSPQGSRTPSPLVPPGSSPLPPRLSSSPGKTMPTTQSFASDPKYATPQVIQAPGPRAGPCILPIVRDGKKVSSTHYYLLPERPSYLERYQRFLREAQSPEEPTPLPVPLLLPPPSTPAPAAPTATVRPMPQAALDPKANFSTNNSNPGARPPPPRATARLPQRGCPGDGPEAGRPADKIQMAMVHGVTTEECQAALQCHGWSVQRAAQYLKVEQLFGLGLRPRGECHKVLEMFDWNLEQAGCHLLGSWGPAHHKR

Consider `CC(=O)N1CCN(c2ccc(Nc3ncc4c(n3)N(C)C(=O)N(c3cc(-c5ncc(-c6ccccc6OC(F)(F)F)[nH]5)ccc3C)C4)cn2)CC1` [Compound No. 14, 7-((6-(4-acetylpiperazin-1-yl)pyridin-3-yl)amino)-1-methyl-3-(2-methyl-5-(5-(2-(trifluoromethoxy)phenyl)-1H-imidazol-2-yl)phenyl)-3,4-dihydropyrimido[4,5-d]pyrimidin-2(1H)-one], for which the GI50 in the test with Ba/F3 (N-Ras G12D) and in the test on OCI-AML3 (N-Ras Q61L) was 0.5 to 3 µM each time. Besides, the IC50 against ACK1 and against GCK was 0.1 to 1 µM throughout.
For the compound `Cc1ccc(-c2ncc(-c3ccccc3OC(F)(F)F)[nH]2)cc1N1Cc2cnc(Nc3ccc(N4CCOCC4)cc3)nc2N(C)C1=O` [Compound No. 18, 1-methyl-3-(2-methyl-5-(5-(2-(trifluoromethoxy)phenyl)-1H-imidazol-2-yl)phenyl)-7-((4-morpholinophenyl)amino)-3,4-dihydropyrimido[4,5-d]pyrimidin-2(1H)-one], the GI50 in the test with Ba/F3 (N-Ras G12D) was 0.5 to 3 µM; in the test with OCI-AML3 (N-Ras Q61L) it was greater than 5 µM. In addition, the IC50 is less than 0.1 µM against ACK1 and 1 to 10 µM against GCK.

A word on the GI50: it is the concentration that inhibits growth by half. As usually defined, the IC50 is the concentration needed to halve the response being measured.
